# Results as given in US20170273985A1, “TRICYCLIC DERIVATIVE” (Sunovion Pharmaceuticals Inc., priority 2014, published 2017).
# Legend:
# Type in all cases: biochemical
# [1] = molecular target: PDE1B (Homo sapiens, UniProt Q01064); test: In vitro HTRF PDE1 inhibition assay (PDE1B)
# Method in brief: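 PDE1A3, 1B or 1C with calmodulin hydrolysed 100 nM cGMP in Tris buffer pH 7.4 (1 mM CaCl2, 10 mM MgCl2, 0.1% BSA, 1% DMSO) for 45 min at 37 °C. Remaining cGMP was measured by HTRF competition (d2-cGMP, anti-cGMP cryptate; 665/615 nm). IC50 is reported in bins: <1, 1-10 and 10-100 μM.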
# [2] = molecular target: PDE1A3 (Homo sapiens, UniProt P54750); test: In vitro HTRF PDE1 inhibition assay (PDE1A3)
# Excerpt: (§1) An exemplary procedure for the in vitro Homogenous Time Resolved Fluorescence assay, which can be used to determine the inhibitory action of compounds of the invention toward PDE1 or its isoforms, follows. The HTRF PDE1 assay utilized the HTRF (Homogenous Time Resolved Fluorescence) technology, which is based on the competition between unlabeled cyclic nucleotide and cyclic nucleotide labeled with XL665 for the binding to cyclic nucleotide-specific antibody labeled with cryptate. The HTRF signal is thus inversely proportional to the concentration of cyclic nucleotide being measured. Since phosphodiesterases break down cyclic nucleotides the HTRF signal was used to determine PDE activity. The Cisbio cGMP HTRF assay kit (Cat no: 62GM2PEC) was utilized. Cyclic GMP was diluted to 200 nM in HTRF assay buffer (1 mM CaCl2, 10 mM MgCl2, 10 mM Tris-HCl, 0.1% BSA, pH 7.4). 10 μl of compound or DMSO was diluted in 200 nM cyclic GMP solution and added to wells of a 96 well white plate to give 100 nM cyclic GMP in 1% DMSO final concentration. PDE (1A3, 1B or IC) was diluted to 2× working concentration in HTRF assay buffer with 2 μg/ml calmodulin, and 10 μl was added to initiate the reaction. The plate was then incubated for 45 minutes at 37° C. d2-Labelled cyclic GMP and anti-cGMP cryptate were diluted in 50 mM phosphate buffer, 0.8 M KF, 1% Triton X100, 0.2% BSA, pH 7.0. Following incubation 10 μl d2-cGMP, then 10 μl anti cGMP cryptate were added to each well and the plate was incubated for 45 minutes at room temperature. The plate was then read on Perkin Elmer Victor at 2 different FRET readings ex/emm 340 nm/665 nm and 340 nm/615 nm. Compounds having an IC50 of <1 μM, are denoted as +++. Compounds having an IC50 of 1−10 μM, are denoted as ++. Compounds having an IC50 of 10-100 μM, are denoted as +.
# [3] = molecular target: PDE1C (Homo sapiens, UniProt Q14123); test: In vitro HTRF PDE1 inhibition assay (PDE1C)
# Excerpt: as §1
IC50 ([1]; Table 25) [nM],IC50 ([2]; Table 26) [nM],IC50 ([3]; Table 27) [nM],IC50 ([1]; Table 22) [nM],IC50 ([2]; Table 23) [nM],IC50 ([3]; Table 24) [nM],SMILES
< 1000,< 1000,< 1000,,,,O=c1c2cnc(C3CCOCC3)n2nc2n1CCN2CC1CCCCC1 [Example 153]
< 1000,< 1000,< 1000,,,,CC(C)CCN1CCn2c1nn1c(C3CCOCC3)ncc1c2=O [Example 172]
< 1000,< 1000,< 1000,,,,O=c1c2cnc(C3CCOCC3)n2nc2n1CCN2Cc1cccc(F)c1 [Example 155]
,,,< 1000,< 1000,1000 to 10000,CC(C)c1ncc2c(=O)n3c(nn12)N(CCCc1ccccn1)CC3 [Example 11]
,,,< 1000,< 1000,1000 to 10000,O=c1c2cnc(C3CCOCC3)n2nc2n1CCCN2Cc1ccccc1 [Example 59]
< 1000,< 1000,< 1000,,,,CC(C)c1ncc2c(=O)n3c(nn12)N(CC1CCOCC1)CC1(CC1)C3 [Example 200]
,,,< 1000,< 1000,1000 to 10000,"CC(C)c1ncc2c(=O)n3c(nn12)N(CC1CCOCC1)CC3 [Example 1, 8-Isopropyl-1-((tetrahydro-2H-pyran-4-yl)methyl)-2,3-dihydrodiimidazo[2,1-c:1′,5′-f][1,2,4]triazin-5(1H)-one]"
,,,< 1000,< 1000,< 1000,CC(C)CN1CCCn2c1nn1c(C(C)C)ncc1c2=O [Example 16]
,,,< 1000,< 1000,1000 to 10000,CN1c2nn3c(C4CCOCC4)ncc3c(=O)n2CCC1c1ccc(Cl)cc1 (stereo not drawn) [Example 69]
,,,< 1000,< 1000,1000 to 10000,CC(C)n1ncc2c(=O)n3c(nc21)N(C)C(c1ccc(Cl)cc1)CC3 (stereo not drawn) [Example 81]
< 1000,< 1000,< 1000,,,,O=c1c2cnc(C3CCOCC3)n2nc2n1CCCN2CC1CCC(F)(F)CC1 [Example 190]
,,,< 1000,< 1000,< 1000,CC(C)c1ncc2c(=O)n3c(nn12)N(CCCCCCO)CCC3 [Example 106]
,,,< 1000,1000 to 10000,1000 to 10000,O=c1c2cnc(C3CCCC3)n2nc2n1CCCC2 [Example 137]
< 1000,< 1000,< 1000,,,,CO[C@H]1CC[C@H](CN2CCCn3c2nn2c(C4CCOCC4)ncc2c3=O)CC1 [Example 191]
< 1000,< 1000,< 1000,,,,O=c1c2cnc(C3CCOCC3)n2nc2n1CCCN2CC1(C(F)(F)F)CC1 [Example 187]
,,,< 1000,< 1000,< 1000,"CC(C)c1ncc2c(=O)n3c(nn12)N(CCCc1ccccn1)CCC3 [Example 120, 9-Isopropyl-1-[3-(2-pyridinyl)propyl]-1,2,3,4-tetrahydro-6H-imidazo[5,1-f]pyrimido[2,1-c][1,2,4]triazin-6-one]"
,,,< 1000,< 1000,< 1000,CC(C)c1ncc2c(=O)n3c(nn12)N(Cc1ccc(C#N)cc1)CCC3 [Example 30]
,,,< 1000,< 1000,1000 to 10000,CCN1c2nn3c(C4CCOCC4)ncc3c(=O)n2CC[C@@H]1c1ccc(Cl)cc1 [Example 70]
< 1000,< 1000,< 1000,,,,O=c1c2cnc(C3CCOCC3)n2nc2n1CCN2CC1(C(F)(F)F)CC1 [Example 159]
< 1000,< 1000,< 1000,,,,O=c1c2cnc(C3CCOCC3)n2nc2n1CCN2Cc1ccccc1F [Example 156]
< 1000,< 1000,< 1000,,,,O=c1c2cnc(C3CCOCC3)n2nc2n1CCN2CC1CCC(F)(F)CC1 [Example 171]
< 1000,< 1000,< 1000,,,,O=c1c2cnc(C3CCOCC3)n2nc2n1CCN2Cc1ccc(F)cc1 [Example 154]
,,,< 1000,< 1000,< 1000,CC(C)c1ncc2c(=O)n3c(nn12)N(CCC1CCOCC1)CCC3 [Example 24]
< 1000,< 1000,< 1000,,,,CC(C)c1ncc2c(=O)n3c(nn12)N(CC1CCOCC1)C[C@H](C)C3 [Example 233]
